Tests used:
[1] = Radioactive metabolites in plasma, urine and feces after single oral dose of [14C] compound (I) to humans; type: in vivo, human; settings: for Metabolites in Feces (0-168 hr), Human, % Dose / Metabolites in Feces (0-168 hr), Human, % Rad / Metabolites in Urine (0-168 hr), Human, % Dose / Metabolites in Urine (0-168 hr), Human, % Rad: oral 100-mg; for Metabolites in Feces (0-168 hr), Human, % Dose / Metabolites in Feces (0-168 hr), Human, % Rad: pooled fecal extracts 0-168 hr; for Metabolites in Urine (0-168 hr), Human, % Dose / Metabolites in Urine (0-168 hr), Human, % Rad: pooled urine 0-168 hr; for % Distribution of radioactive metabolites in pooled plasma, Human (2 h): oral 100-mg [14C] compound (I), plasma 2 h
Procedure: (§1) Plasma samples were segregated by collection time and equal volumes of individual plasma samples at a given time point were combined for biotransformation profiling.
(§2) The C-14 label was on the carbon-2 of the thiazole ring.
(§3) HPLC was performed on an Agilent 1100™ system equipped with binary pumps, autoinjector, and a column heater. A Phenomenex Synergy Polar-RP® column (4.6×250 mm, 5 micron) was used for metabolite separation. All HPLC analyses were performed at 1 mL/min flow rate at 35° C. The HPLC mobile phase consisted of (A) water with 0.1% formic acid and (B) acetonitrile with 0.1% formic acid.
(§4) Each fraction of column eluent was evaporated to dryness on a Savant Speed-Vac (Savant Instruments Inc., Holbrook, N.Y.) and counted for radioactivity with a Packard Top Count® microplate scintillation analyzer (Packard Biosciences, Downers Grove, Ill.).
(§5) The volumes of pooled plasma processed for HPLC analysis for rat, monkey and human ranged between 1.5 and 8.0 mL. Pooled plasma samples were extracted with methanol/acetonitrile (1:1) at a ratio of 2 volumes solvent to 1 volume of plasma. The mixtures were vortex mixed, sonicated for 5 min, and centrifuged at 3500 rpm for 10 min. The supernatants were transferred into new tubes. The remaining pellets were extracted two more times with 3 mL of methanol/acetonitrile (1:1). The supernatants were combined and evaporated to dryness in a Savant Speed-Vac (Savant Instruments, Inc., Holbrook, N.Y.). The residue was reconstituted into 0.35 to 0.45 mL of 30% acetonitrile in water, vortex mixed and centrifuged at 13000 rpm for 5 min (American Scientific Products Biofuge A centrifuge, Heraeus Sepatech GmbH, Germany). The supernatant was injected onto the HPLC for profiling. Aliquots of the reconstituted samples (30 μl) were also counted on the liquid scintillation counter (LSC) to determine the recovery of radioactivity.
(§6) The pooled monkey and human urine samples (3-5 mL) were extracted with 2 volumes of acetonitrile/acetone (1:1). The mixtures were vortex mixed, sonicated and centrifuged at 3500 rpm for 10 min. The supernatants were evaporated to dryness. The residue was suspended in 0.3-0.5 mL of 30% acetonitrile in water and centrifuged at 13000 rpm for 5 min. Aliquots of the supernatants were injected onto the HPLC or analyzed by LSC for radioactivity recovery. Pooled urine samples from BDC monkeys and rats were centrifuged at 13000 rpm for 10 min and injected onto the HPLC for profiling without further treatment.
(§7) The amount of fecal homogenate used for analysis was 0.20, 0.19 and 0.51 g for rat, monkey and human, respectively. Each pooled fecal homogenate was extracted by addition of 3 volumes of acetonitrile/methanol (1:1) to 1 volume of fecal homogenate and mixed on a vortex mixer. The mixture was sonicated for 5 min and then centrifuged at 3000 rpm for 10 min. The supernatants were removed and saved. The extraction was repeated two additional times and the supernatants were combined and evaporated to dryness on a Savant Speed-Vac. […] An aliquot of the supernatant was injected onto the HPLC or analyzed by LSC for radioactivity recovery.
(§8) The LC/MS system used for analysis of plasma, urine, bile, and fecal samples consisted of an Agilent 1100™ HPLC system connected to a Finnigan LCQ-DecaXP mass spectrometer. Samples were analyzed using positive electrospray ionization. The capillary temperature used for analysis was 320° C., and the nitrogen gas flow rate, spray current, and voltages were adjusted to give maximum sensitivity. The HPLC conditions were described in section 3.3.1.
(§9) Counts per min (CPM) were determined on a Packard TopCount NXT microplate scintillation and luminescence counter. For each injection, the average CPM value (2-4 CPM) obtained from fractions between 2-3 min (column void) in the chromatogram was subtracted from the CPM value of each fraction. Biotransformation profiles were prepared by plotting the background subtracted CPM values against time-after-injection.

[2] = Radioactive metabolites in urine and bile after IV administration of [14C] compound (I) to bile-duct cannulated monkeys; type: in vivo, monkey; settings: IV infusion 2 mg/kg; for Metabolites in BDC-Monkeys (0-72 hr), Bile, % Dose / Metabolites in BDC-Monkeys (0-72 hr), Bile, % Rad: bile 0-72 hr; for Metabolites in BDC-Monkeys (0-72 hr), Urine, % Dose / Metabolites in BDC-Monkeys (0-72 hr), Urine, % Rad (% of total radioactivity in sample): urine 0-72 hr
Procedure: A separate bile-duct cannulated (BDC) monkey study was also conducted. […]
as §2, §3, §4, §6
A pooled bile sample (0-72 h) from BDC monkeys was diluted fifteen-fold with 20% acetonitrile in water with 0.1% formic acid. The diluted sample was centrifuged at 13000 rpm for 5 min. Aliquots of the supernatant was injected onto HPLC or analyzed by LSC for radioactivity recovery.
as §8
as §9, with “time-after-injection. Radioactivity peaks in the biotransformation profiles were reported as a percentage of the total radioactivity (after background subtraction) collected during the entire HPLC run.” for “time-after-injection.”

[3] = Radioactive metabolites in plasma, urine and feces after single oral dose of [14C] compound (I) to rats; type: in vivo, Sprague-Dawley rat; settings: for % Distribution of radioactive metabolites in pooled plasma, Rat (4 h): oral 15 mg/kg [14C] compound (I), plasma 4 h; for Metabolites in Feces (0-168 hr), Rat, % Dose / Metabolites in Feces (0-168 hr), Rat, % Rad (% of total radioactivity in sample) / Metabolites in Urine (0-168 hr), Rat, % Dose / Metabolites in Urine (0-168 hr), Rat, % Rad (% of total radioactivity in sample): oral 15 mg/kg; for Metabolites in Feces (0-168 hr), Rat, % Dose / Metabolites in Feces (0-168 hr), Rat, % Rad (% of total radioactivity in sample): pooled fecal extracts 0-168 hr; for Metabolites in Urine (0-168 hr), Rat, % Dose / Metabolites in Urine (0-168 hr), Rat, % Rad (% of total radioactivity in sample): pooled urine 0-168 hr
Procedure: as §1, §2, §3, §4, §5, §6, §7, §8, §9

Structure (SMILES)	Metabolites in Feces (0-168 hr), Human, % Dose [1]	Metabolites in Feces (0-168 hr), Human, % Rad [1]	Metabolites in Urine (0-168 hr), Human, % Dose [1]	Metabolites in Urine (0-168 hr), Human, % Rad [1]	Metabolites in BDC-Monkeys (0-72 hr), Bile, % Dose [2]	Metabolites in BDC-Monkeys (0-72 hr), Bile, % Rad [2]	% Distribution of radioactive metabolites in pooled plasma, Rat (4 h) [3]	Metabolites in Feces (0-168 hr), Rat, % Dose [3]	Metabolites in Feces (0-168 hr), Rat, % Rad (% of total radioactivity in sample) [3]	Metabolites in Urine (0-168 hr), Rat, % Dose [3]	Metabolites in Urine (0-168 hr), Rat, % Rad (% of total radioactivity in sample) [3]	% Distribution of radioactive metabolites in pooled plasma, Human (2 h) [1]	Metabolites in BDC-Monkeys (0-72 hr), Urine, % Dose [2]	Metabolites in BDC-Monkeys (0-72 hr), Urine, % Rad (% of total radioactivity in sample) [2]
Cc1nc(Nc2ncc(C(=O)Nc3c(C)cccc3Cl)s2)cc(N2CC[N+]([O-])(CCO)CC2)n1 [M5 (III)]			1.4%	39.8%	5.0%	7.4%	18.7%			3.4%	52.4%	4.5%	7.0%	70.7%
Cc1nc(Nc2ncc(C(=O)Nc3c(C)cccc3Cl)s2)cc(N2CCN(CC(=O)O)CC2)n1 [M6 (IV), 2-(4-(6-(5-((2-Chloro-6-methylphenyl)carbamoyl)thiazol-2-ylamino)-2-methylpyrimidin-4-yl)piperazin-1-yl)acetic acid]	8.9%	10.4%	0.05%	1.3%	6.3%	9.4%	2.2%	13.2%	17.3%	0.4%	6.5%	3.6%	0.3%	2.8%
Cc1nc(Nc2ncc(C(=O)Nc3c(C)cc(O)cc3Cl)s2)cc(N2CCN(CCO)CC2)n1 [M20 (V)]	31.2%	36.6%	0.2%	4.1%	2.4%	3.5%		7.6%	9.9%	0.6%	9.9%	12.5%	0.3%	2.7%
Cc1nc(Nc2ncc(C(=O)Nc3c(Cl)cccc3CO)s2)cc(N2CCN(CCO)CC2)n1 [M24 (VI), N-(2-chloro-6-(hydroxymethyl)phenyl)-2-(6-(4-(2-hydroxyethyl)piperazin-1-yl)-2-methylpyrimidin-4-ylamino)thiazole-5-carboxamide]	4.0%	4.7%	0.2%	6.0%	3.0%	4.4%		3.1%	4.0%			3.1%	0.1%	1.4%

Other lines, results leading:

Metabolites in Feces (0-168 hr), Human, % Dose [1]	Metabolites in Feces (0-168 hr), Human, % Rad [1]	Metabolites in Urine (0-168 hr), Human, % Dose [1]	Metabolites in Urine (0-168 hr), Human, % Rad [1]	Metabolites in BDC-Monkeys (0-72 hr), Bile, % Dose [2]	Metabolites in BDC-Monkeys (0-72 hr), Bile, % Rad [2]	% Distribution of radioactive metabolites in pooled plasma, Rat (4 h) [3]	Metabolites in Feces (0-168 hr), Rat, % Dose [3]	Metabolites in Feces (0-168 hr), Rat, % Rad (% of total radioactivity in sample) [3]	Metabolites in Urine (0-168 hr), Rat, % Dose [3]	Metabolites in Urine (0-168 hr), Rat, % Rad (% of total radioactivity in sample) [3]	% Distribution of radioactive metabolites in pooled plasma, Human (2 h) [1]	Metabolites in BDC-Monkeys (0-72 hr), Urine, % Dose [2]	Metabolites in BDC-Monkeys (0-72 hr), Urine, % Rad (% of total radioactivity in sample) [2]	Structure (SMILES)
2.6%	3.1%	0.05%	1.3%	0.5%	0.7%	2.6%	1.9%	2.5%	0.3%	4.4%				Cc1nc(Nc2ncc(C(=O)Nc3c(C)cccc3Cl)s2)cc(N2CCNCC2)n1 [M4 (II)]
19.1%	22.4%	0.1%	3.6%	3.2%	4.7%	52.8%	41.6%	54.5%	0.7%	11.6%	25.5%	0.1%	1.4%	Cc1nc(Nc2ncc(C(=O)Nc3c(C)cccc3Cl)s2)cc(N2CCN(CCO)CC2)n1 [Parent (I), N-(2-Chloro-6-methylphenyl)-2-[[6-[4-(2-hydroxyethyl)-1-piperazinyl]-2-methyl-4-pyrimidinyl]amino]-5-thiazolecarboxamide]

— patent publication US20060211705A1, “'N-(2-chloro-6-methylphenyl)-2-[[6-[4-(2-hydroxyethyl)-1-piperazinyl]-2-methyl-4-pyrimidinyl]amino]-5-thiazolecarboxamides metabolites” (priority 2005, published 2006)
